Reference: patent publication US12655116B2, “Substituted isophthalic acid diamides” (Bayer Aktiengesellschaft, priority 2020, dated 2026)

Tests used:
ALOMY [1] = assay: Pre-emergence herbicidal action against ALOMY; assay type: in vivo, Alopecurus myosuroides; conditions: Alopecurus myosuroides, 504 h, pre-emergence; for pest or weed control at 80 g/ha: scored visually after 3 weeks vs untreated controls (100% = plants have died, 0% = like control plants); for pest or weed control at 320 g/ha: scored visually after 3 weeks, 100% = plants have died, 0% = like control plants
In short: (§1)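 Seeds sown in sandy loam, soil-covered; compound sprayed on soil surface pre-emergence. Application: WP/EC, 600–800 l/ha, 0.2% wetting agent. Readout: visual % damage at 3 weeks.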

HORMU [2] = assay: Pre-emergence herbicidal action against HORMU; assay type: in vivo, Hordeum murinum; conditions: Hordeum murinum, 504 h, pre-emergence
In short: as §1

STEME [3] = assay: Post-emergence herbicidal action against STEME; assay type: in vivo, Stellaria media; conditions: Stellaria media, 504 h
In short: (§2)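 Sandy loam, greenhouse; treatment 2–3 weeks after sowing, one-leaf stage. Aqueous suspension or emulsion from WP/EC sprayed on foliage (600–800 l/ha, 0.2% wetting agent). Readout: visual % action, ~3 weeks.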

ABUTH [4] = assay: Pre-emergence herbicidal action against ABUTH; assay type: in vivo, Abutilon theophrasti; conditions: Abutilon theophrasti, 504 h; for pest or weed control at 80 g/ha: scored visually after 3 weeks vs untreated controls (100% = plants have died, 0% = like control plants); for pest or weed control at 320 g/ha: Dosage: 320 g/ha, scored visually after 3 weeks; for pest or weed control at 320 g/ha / pest or weed control at 20 g/ha: 100% = plants have died, 0% = like control plants; for pest or weed control at 20 g/ha: dosage 20 g/ha, scored visually after 3 weeks vs untreated controls, read-out: Pre-emergence action against ABUTH (herbicidal activity in percent)
In short: as §1

AMARE [5] = assay: Pre-emergence herbicidal action against AMARE; assay type: in vivo, Amaranthus retroflexus; conditions: Amaranthus retroflexus, 504 h, 100% = plants have died, 0% = like control plants; for pest or weed control at 80 g/ha / pest or weed control at 20 g/ha: scored visually after 3 weeks vs untreated controls; for pest or weed control at 320 g/ha: scored visually after 3 weeks
In short: as §1

AVEFA = assay: Pre-emergence herbicidal action against AVEFA; assay type: in vivo, Avena fatua; conditions: Avena fatua, 504 h, pre-emergence; for pest or weed control at 320 g/ha: scored visually after 3 weeks, 100% = plants have died, 0% = like control plants
In short: as §1

STEME [6] = assay: Pre-emergence herbicidal action against STEME; assay type: in vivo, Stellaria media; conditions: Stellaria media, 504 h; for pest or weed control at 80 g/ha: dosage 80 g/ha; for pest or weed control at 320 g/ha: dosage 320 g/ha
In short: as §1

VIOTR [7] = assay: Post-emergence herbicidal action against VIOTR; assay type: in vivo, Viola tricolor; conditions: Viola tricolor, 504 h
In short: as §2

MATIN = assay: Post-emergence herbicidal action against MATIN; assay type: in vivo, Matricaria inodora; conditions: Tripleurospermum inodorum, 504 h; for pest or weed control at 20 g/ha: dosage 20 g/ha; for pest or weed control at 80 g/ha: dosage 80 g/ha
In short: as §2

VERPE = assay: Post-emergence herbicidal action against VERPE; assay type: in vivo, Veronica persica; conditions: Veronica persica, 504 h
In short: as §2

ABUTH [8] = assay: Post-emergence herbicidal action against ABUTH; assay type: in vivo, Abutilon theophrasti; conditions: Abutilon theophrasti, 504 h, visual assessment about 3 weeks after treatment vs untreated controls; for pest or weed control at 20 g/ha: dosage 20 g/ha; for pest or weed control at 80 g/ha: dosage 80 g/ha; for pest or weed control at 5 g/ha: dosage 5 g/ha
In short: as §2

AMARE [9] = assay: Post-emergence herbicidal action against AMARE; assay type: in vivo, Amaranthus retroflexus; conditions: Amaranthus retroflexus, 504 h, visual assessment about 3 weeks after treatment, 100% = plants have died, 0% = like control plants
In short: as §2

LOLRI [10] = assay: Pre-emergence herbicidal action against LOLRI; assay type: in vivo, Lolium rigidum; conditions: Lolium rigidum, 504 h, 320 g/ha
In short: as §1

ALOMY [11] = assay: Post-emergence herbicidal action against ALOMY; assay type: in vivo, Alopecurus myosuroides; conditions: Alopecurus myosuroides, 504 h, visual assessment about 3 weeks after treatment vs untreated controls; for pest or weed control at 20 g/ha: dosage 20 g/ha; for pest or weed control at 80 g/ha: dosage 80 g/ha
In short: as §2

LOLRI [12] = assay: Post-emergence herbicidal action against LOLRI; assay type: in vivo, Lolium rigidum; conditions: Lolium rigidum, 504 h; for pest or weed control at 80 g/ha: dosage 80 g/ha
In short: as §2

ECHCG = assay: Pre-emergence herbicidal action against ECHCG; assay type: in vivo, Echinochloa crus-galli; conditions: Echinochloa crus-galli, 504 h
In short: as §1

POLCO = assay: Pre-emergence herbicidal action against POLCO; assay type: in vivo, Polygonum convolvulus; conditions: Fallopia convolvulus, 504 h, dosage 320 g/ha
In short: as §1

HORMU [13] = assay: Post-emergence herbicidal action against HORMU; assay type: in vivo, Hordeum murinum; conditions: Hordeum murinum, 504 h; for pest or weed control at 80 g/ha: dosage 80 g/ha; for pest or weed control at 20 g/ha: dosage 20 g/ha
In short: as §2

VIOTR [14] = assay: Pre-emergence herbicidal action against VIOTR; assay type: in vivo, Viola tricolor; conditions: Viola tricolor, 504 h; for pest or weed control at 80 g/ha: dosage 80 g/ha; for pest or weed control at 320 g/ha: dosage 320 g/ha
In short: as §1

SETVI [15] = assay: Pre-emergence herbicidal action against SETVI; assay type: in vivo, Setaria viridis; conditions: Setaria viridis, 504 h; for pest or weed control at 80 g/ha: dosage 80 g/ha; for pest or weed control at 320 g/ha: dosage 320 g/ha
In short: as §1

PHBPU = assay: Post-emergence herbicidal action against PHBPU; assay type: in vivo, Pharbitis purpurea; conditions: Ipomoea purpurea, 504 h, dosage 80 g/ha
In short: as §2

SETVI [16] = assay: Post-emergence herbicidal action against SETVI; assay type: in vivo, Setaria viridis; conditions: Setaria viridis, 504 h; for pest or weed control at 20 g/ha: dosage 20 g/ha; for pest or weed control at 80 g/ha: dosage 80 g/ha
In short: as §2

| SMILES | pest or weed control at 320 g/ha (ALOMY [1]) | pest or weed control at 320 g/ha (HORMU [2]) | pest or weed control at 80 g/ha (STEME [3]) | pest or weed control at 80 g/ha (ABUTH [4]) | pest or weed control at 320 g/ha (ABUTH [4]) | pest or weed control at 80 g/ha (AMARE [5]) | pest or weed control at 320 g/ha (AMARE [5]) | pest or weed control at 80 g/ha (AVEFA) | pest or weed control at 320 g/ha (AVEFA) | pest or weed control at 80 g/ha (STEME [6]) | pest or weed control at 320 g/ha (STEME [6]) | pest or weed control at 80 g/ha (VIOTR [7]) | pest or weed control at 80 g/ha (VERPE) | pest or weed control at 20 g/ha (ABUTH [8]) | pest or weed control at 80 g/ha (ABUTH [8]) | pest or weed control at 20 g/ha (AMARE [9]) | pest or weed control at 80 g/ha (AMARE [9]) | pest or weed control at 320 g/ha (LOLRI [10]) | pest or weed control at 80 g/ha (ALOMY [11]) | pest or weed control at 80 g/ha (LOLRI [12]) | further results |
| --- | --- | --- | --- | --- | --- | --- | --- | --- | --- | --- | --- | --- | --- | --- | --- | --- | --- | --- | --- | --- | --- |
| CCNC(=O)c1c(C(F)F)ccc(C(=O)Nc2nnnn2C)c1Cl [Example 1-148] | 100% | 100% | 90% | 100% | 100% | 100% | 100% | 100% | 100% | 100% | 100% | 90% | 80% | 90% | 90% | 90% | 90% | 90% | 90% | 90% | pest or weed control at 80 g/ha (ALOMY [1]): 90%; pest or weed control at 80 g/ha (HORMU [2]): 90%; pest or weed control at 20 g/ha (STEME [3]): 90%; pest or weed control at 20 g/ha (VIOTR [7]): 80%; pest or weed control at 20 g/ha (MATIN): 100%; pest or weed control at 80 g/ha (MATIN): 100%; pest or weed control at 20 g/ha (VERPE): 80%; pest or weed control at 20 g/ha (ALOMY [11]): 80%; pest or weed control at 20 g/ha (LOLRI [12]; dosage 20 g/ha): 80%; pest or weed control at 80 g/ha (ECHCG): 100%; pest or weed control at 320 g/ha (ECHCG): 100%; pest or weed control at 320 g/ha (POLCO): 80%; pest or weed control at 80 g/ha (HORMU [13]): 90%; pest or weed control at 80 g/ha (VIOTR [14]): 100%; pest or weed control at 320 g/ha (VIOTR [14]): 100%; pest or weed control at 80 g/ha (SETVI [15]): 100%; pest or weed control at 320 g/ha (SETVI [15]): 100% |
| Cn1nnnc1NC(=O)c1ccc(C(F)(F)F)c(C(N)=O)c1Cl [Example 1-338] | 100% | 100% | 90% | 100% | 100% | 100% | 100% | 90% | 100% | 90% | 90% | 90% | 100% | 90% | 100% | 90% | 100% | 90% | 100% | 80% | pest or weed control at 20 g/ha (ABUTH [4]): 80%; pest or weed control at 20 g/ha (AMARE [5]): 100%; pest or weed control at 5 g/ha (ABUTH [8]): 90%; pest or weed control at 80 g/ha (PHBPU): 90%; pest or weed control at 20 g/ha (SETVI [16]): 80%; pest or weed control at 80 g/ha (SETVI [16]): 100%; pest or weed control at 80 g/ha (ECHCG): 90%; pest or weed control at 320 g/ha (ECHCG): 100%; pest or weed control at 320 g/ha (POLCO): 80%; pest or weed control at 20 g/ha (HORMU [13]): 80%; pest or weed control at 80 g/ha (HORMU [13]): 90%; pest or weed control at 80 g/ha (VIOTR [14]): 80%; pest or weed control at 320 g/ha (VIOTR [14]): 100%; pest or weed control at 80 g/ha (SETVI [15]): 90%; pest or weed control at 320 g/ha (SETVI [15]): 100% |
| CCNC(=O)c1c(C(F)(F)F)ccc(C(=O)Nc2nnnn2CC)c1SC [Example 2-82] | 100% | 100% | 90% | 100% | 100% | 100% | 100% | 100% | 100% | 100% | 100% | 80% | 90% | 90% | 90% | 90% | 90% | 90% | 90% | 90% | pest or weed control at 80 g/ha (HORMU [2]): 80%; pest or weed control at 20 g/ha (STEME [3]): 80%; pest or weed control at 20 g/ha (VIOTR [7]): 80%; pest or weed control at 20 g/ha (MATIN): 90%; pest or weed control at 80 g/ha (MATIN): 90%; pest or weed control at 20 g/ha (VERPE): 80%; pest or weed control at 80 g/ha (ECHCG): 100%; pest or weed control at 320 g/ha (ECHCG): 100%; pest or weed control at 320 g/ha (POLCO): 90%; pest or weed control at 20 g/ha (HORMU [13]): 80%; pest or weed control at 80 g/ha (HORMU [13]): 90%; pest or weed control at 80 g/ha (VIOTR [14]): 100%; pest or weed control at 320 g/ha (VIOTR [14]): 100%; pest or weed control at 80 g/ha (SETVI [15]): 100%; pest or weed control at 320 g/ha (SETVI [15]): 100% |
| CCn1nnnc1NC(=O)c1ccc(C(F)(F)F)c(C(N)=O)c1Cl [Example 2-338] | 100% | 100% | 100% | 100% | 100% | 100% | 100% | 90% | 100% | 90% | 100% | 100% | 100% | 100% | 100% | 100% | 100% | 100% | 100% | 90% | pest or weed control at 80 g/ha (ALOMY [1]): 90%; pest or weed control at 80 g/ha (HORMU [2]): 80%; pest or weed control at 20 g/ha (STEME [3]): 90%; pest or weed control at 20 g/ha (ABUTH [4]): 90%; pest or weed control at 20 g/ha (AMARE [5]): 90%; pest or weed control at 20 g/ha (VIOTR [7]): 100%; pest or weed control at 20 g/ha (VERPE): 90%; pest or weed control at 5 g/ha (ABUTH [8]): 100%; pest or weed control at 80 g/ha (PHBPU): 90%; pest or weed control at 20 g/ha (SETVI [16]): 80%; pest or weed control at 80 g/ha (SETVI [16]): 100%; pest or weed control at 20 g/ha (ALOMY [11]): 80%; pest or weed control at 80 g/ha (ECHCG): 90%; pest or weed control at 320 g/ha (ECHCG): 100%; pest or weed control at 320 g/ha (POLCO): 90%; pest or weed control at 80 g/ha (HORMU [13]): 100%; pest or weed control at 80 g/ha (VIOTR [14]): 100%; pest or weed control at 320 g/ha (VIOTR [14]): 100%; pest or weed control at 80 g/ha (SETVI [15]): 90%; pest or weed control at 320 g/ha (SETVI [15]): 100% |
